Target: human acid ceramidase (hAC) (Homo sapiens (Human), UniProt Q13510)
Test: Human acid ceramidase (hAC) activity assay, UPLC/MS of lauric acid
Format: biochemical
Settings: at 0.5 μM; read-out: hAC percent inhibition
Protocol: Human acid ceramidase (hAC) cDNA was purchased from Open Biosystem (clone ID 3923451) and subcloned in the mammalian expression vector pCDNA3.1, containing the neomycin resistance gene. The cell line HEK293 was transfected with hAC-pCDNA3.1 construct using JetPEI reagent (Polypus Transfection™, Illkirch, FR) following the manufacturer instructions. A stable cell line of hAC-overexpressing HEK293 was generated by selection with G418 (1 mg/ml) and cell clones were derived by limited dilution plating. hAC-expressing clones were analyzed by western blot.
Hek293 cells overexpressing hAC were suspended in 20 mM Tris HCl (pH 7.5) containing 0.32M sucrose, sonicated and centrifuged at 800×g for 15 min at 4° C. The supernatants were centrifuged again at 12,000×g for 30 min at 4° C. The pellets were suspended in phosphate-buffered saline (PBS) and subjected to 2 freeze-thaw cycles at −80° C. The suspensions were centrifuged at 105,000×g for 1 h at 4° C. The supernatants containing hAC were kept at −80° C. until use. Protein concentration was measured using the bicinchoninic acid (BCA) assay (Pierce).
A hAC protein preparation (10 μg) was preincubated with inhibitors (final DMSO concentration 1%) in assay buffer (100 mM sodium phosphate, 0.1% Nonidet P-40, 150 mM NaCl, 3 mM DTT, 100 mM sodium citrate, pH 4.5) for 30 min at 37° C. Reactions were started by the addition of 50 μM N-lauroyl ceramide (Nu-Chek Prep, Elysian, Minn.) and carried on for 30 min at 37° C. Reactions were stopped by addition of a mixture of chloroform/methanol (2:1, vol/vol) containing 1 nmol 11-lauroleic acid (NuChek Prep). The organic phases were collected, dried under nitrogen and analyzed by UPLC/MS (Acquity, Waters) in the negative-ion mode monitoring the reaction product (lauric acid, m/z=199) using 11-lauroleic acid as internal standard.
Lipids were eluted on an Acquity UPLC BEH C18 column (50 mm length, 2.1 mm i.d., 1.7 μm pore size, Waters) column at 0.5 mL-min^−1 for 1.5 min with a gradient of acetonitrile (CH3CN) and water, both containing 0.25% acetic acid and 5 mM ammonium acetate (70% to 100% CH3CN in 0.5 min, 100% CH3CN for 0.5 min, 70% CH3CN for 0.4 min). The column temperature was 40° C. Electrospray ionization (ESI) was in the negative mode, capillary voltage was 1 kV and cone voltage was 50 V. Nitrogen was used as drying gas at a flow rate of 500 L/h and at a temperature of 400° C.
The [M-H]^− ion was monitored in the selected-ion monitoring mode (m/z values: lauric acid 199, 11-lauroleic acid […]). Calibration curves were generated with authentic lauric acid (Nu Check Prep). Inhibition of acid ceramidase activity was calculated as reduction of lauric acid in the samples compared to vehicle controls. IC50 values were calculated by non-linear regression analysis of log [concentration]/inhibition curves using GraphPad Prism 5 (GraphPad Software Inc., CA, USA) applying a standard slope curve fitting.

Sequence of human acid ceramidase (hAC) (Q13510 143-395): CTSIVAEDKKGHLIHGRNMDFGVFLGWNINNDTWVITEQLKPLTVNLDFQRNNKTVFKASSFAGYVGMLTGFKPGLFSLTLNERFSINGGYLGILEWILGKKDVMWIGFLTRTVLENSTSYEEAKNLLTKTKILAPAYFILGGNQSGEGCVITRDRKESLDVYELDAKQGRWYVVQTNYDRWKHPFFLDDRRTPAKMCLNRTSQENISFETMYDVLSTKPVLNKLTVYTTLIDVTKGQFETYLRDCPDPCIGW
Sequence of human acid ceramidase (hAC) (Q13510 22-142): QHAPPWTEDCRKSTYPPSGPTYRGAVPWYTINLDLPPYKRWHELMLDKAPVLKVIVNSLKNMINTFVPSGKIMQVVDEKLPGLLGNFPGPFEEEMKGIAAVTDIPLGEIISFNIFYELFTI

Compound | inhibition at 0.5 µM
O=C(NCCCCCc1ccc(F)cc1)n1ccc(=O)[nH]c1=O [Example 34, N-[5-(4-fluorophenyl)pentyl]-2,4-dioxo-pyrimidine-1-carboxamide] | 99%

Same assay, conditions: at 1 μM; read-out: hAC percent inhibition

Compound | inhibition at 1 µM
CCCCCCNC(=O)n1cc(-c2ccc(F)cc2)c(=O)[nH]c1=O [Example 18, 5-(4-fluorophenyl)-N-hexyl-2,4-dioxo-pyrimidine-1-carboxamide] | 74%
CCCCCCNC(=O)n1cc(-c2ccc(OC)cc2)c(=O)[nH]c1=O [Example 19, N-hexyl-5-(4-methoxyphenyl)-2,4-dioxo-pyrimidine-1-carboxamide] | 52%
CCCCCCNC(=O)n1cc(-c2ccc(C)cc2)c(=O)[nH]c1=O [Example 20, N-hexyl-2,4-dioxo-5-(p-tolyl)pyrimidine-1-carboxamide] | 54%
CCCCCCNC(=O)n1cc(-c2ccc(C(F)(F)F)cc2)c(=O)[nH]c1=O [Example 21, N-hexyl-2,4-dioxo-5-[4-(trifluoromethyl)phenyl]pyrimidine-1-carboxamide] | 86%
CCCCCCNC(=O)n1cc(-c2ccc3ccccc3c2)c(=O)[nH]c1=O [Example 22, N-Hexyl-5-(2-naphthyl)-2,4-dioxo-pyrimidine-1-carboxamide] | 64%
CCCCCCNC(=O)n1cc(Br)c(=O)n(C)c1=O [Example 25, 5-Bromo-N-hexyl-3-methyl-2,4-dioxo-pyrimidine-1-carboxamide] | 96%
CCCCCCNC(=O)n1cc(-c2ccccc2)c(=O)n(C(=O)OCC(C)C)c1=O [Example 26, Isobutyl 3-(hexylcarbamoyl)-2,6-dioxo-5-phenyl-pyrimidine-1-carboxylate] | 100%
CCCCCCNC(=O)n1cc(Cl)c(=O)n(C(=O)OCC(C)C)c1=O [Example 30, Isobutyl 5-chloro-3-(hexylcarbamoyl)-2,6-dioxo-pyrimidine-1-carboxylate] | 100%
CCCCCCNC(=O)n1cc(-c2cccnc2)c(=O)[nH]c1=O [Example 31, N-hexyl-2,4-dioxo-5-(3-pyridyl)pyrimidine-1-carboxamide] | 99%
O=C(NCCCCCc1ccccc1)n1ccc(=O)[nH]c1=O [Example 33, 2,4-dioxo-N-(5-phenylpentyl)pyrimidine-1-carboxamide] | 100%

Same assay, conditions: human acid ceramidase, 50 μM N-lauroyl ceramide, pH 4.5

Compound | IC50
CCCCCCNC(=O)n1cc(-c2ccccc2)c(=O)[nH]c1=O [Example 14, N-hexyl-2,4-dioxo-5-phenyl-pyrimidine-1-carboxamide] | 155 nM
CCCCCCNC(=O)n1cc(Br)c(=O)n(C(=O)OC)c1=O [Example 23, Methyl 5-bromo-3-(hexylcarbamoyl)-2,6-dioxo-pyrimidine-1-carboxylate] | 270 nM
CCCCCCNC(=O)n1cc(Br)c(=O)n(C(=O)OCC(C)C)c1=O [Example 24, Isobutyl 5-bromo-3-(hexylcarbamoyl)-2,6-dioxo-pyrimidine-1-carboxylate] | 14 nM

Tested on: SW403 cells
Test: SW403 cell viability, MTT assay
Format: cell-based, human
Settings: sub-chronic treatment 72 hrs; compounds 30 μM, 5FU 300 nM
Protocol: Cells were seeded in 12- or 96-well plates in complete medium 24 hrs before treatment and then incubated for 24 hrs (single treatment) or 72 hrs (multiple treatments) with different drug concentrations in media without serum. Cell viability was then evaluated.
Alternatively, cell viability was assessed measuring mitochondrial functionality by the MIT assay, which is based on the reduction of the soluble tetrazolium salt MTT [(3-(4,5-dimethylthiazol-2-yl)-2,5-diphenyltetrazolium bromide] into insoluble formazan by mitochondria. Briefly, after treatment, cells were washed with PBS and incubated with 0.5 mg/ml, MTT for 2 hrs at room temperature, MTT reduction was quantified by absorbance at 570 nm using a UV-visible plate reader.

Compound | SW403 cell viability (MTT assay)
O=c1[nH]cc(F)c(=O)[nH]1 [5-fluorouracil, reference compound] | reduced cell viability

Target: rat acid ceramidase (rAC) (Rattus norvegicus (Rat), UniProt Q6P7S1)
Sequence (Q6P7S1 142-394): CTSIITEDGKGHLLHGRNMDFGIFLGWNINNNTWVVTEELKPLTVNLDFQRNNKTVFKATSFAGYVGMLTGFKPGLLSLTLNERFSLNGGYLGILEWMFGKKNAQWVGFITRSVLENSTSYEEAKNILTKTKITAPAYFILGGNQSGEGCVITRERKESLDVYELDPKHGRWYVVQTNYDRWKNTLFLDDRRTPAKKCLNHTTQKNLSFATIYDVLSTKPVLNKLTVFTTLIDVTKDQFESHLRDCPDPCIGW
Sequence (Q6P7S1 21-141): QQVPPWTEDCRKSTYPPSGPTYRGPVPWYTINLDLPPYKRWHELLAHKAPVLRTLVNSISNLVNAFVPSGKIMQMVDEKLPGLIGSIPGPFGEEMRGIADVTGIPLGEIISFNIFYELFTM
Test: Rat acid ceramidase (rAC) enzymatic assay, LC/MS of lauric acid
Format: biochemical
Settings: at 0.3 μM; read-out: rAC percent inhibition
Protocol: A lysosomal rat acid ceramidase (rAC) protein preparation was obtained from cells stably expressing rAC resuspended in 20 mM Tris HCl (pH 7.5) with 0.32 M sucrose. Samples were sonicated and centrifuged at 800×g for 15 min at 4° C. Supernatants were then centrifuged at 12,000×g for 30 min at 4° C. Pellets were re-suspended in PBS pH 7.4 and subjected to 2 freeze-thaw cycles at −80° C. The suspension was finally centrifuged at 105,000×g for 1 hr at 4° C. and the supernatant containing rAC was then used in the enzymatic assay.
r-AC protein samples were pre-incubated with various concentrations of test compounds or vehicle control in 100 mM NaH2PO4/citrate buffer pH 4.5, 0.1% Nonidet P-40, 3 mM DTT for 30 min at 37° C. Samples were incubated with 100 μM N-lauroyl ceramide (Nu-Chek Prep, Elysian, Minn.) at 37° for 30 min. The reaction was stopped by addition of a mixture of chloroform/methanol (2:1 vol/vol) containing 1 nmol of heptadecanoic acid (HDA; NuChek Prep). The organic phases were collected, dried under nitrogen, and analyzed by LC/MS in the negative-ion mode using heptadecanoic acid (HDA) as internal standard (m/z=199 for lauric acid, m/z=269 for HDA). HDA was eluted on an XDB Eclipse C18 column isocratically at 2.2 mL/min for 1 min with a solvent mixture of 95% methanol and 5% water, both containing 0.25% acetic acid, and 5 mM ammonium acetate. The column temperature was 50° C. Electrospray ionization (ESI) was in the negative mode, capillary voltage was 4 kV, and fragmentor voltage was 100 V. Nitrogen was used as drying gas at a flow rate of 13 L/min and at a temperature of 350° C. Nebulizer pressure was set at 60 psi. We monitored [M-H]− in the selected-ion monitoring (SIM) mode using HDA as internal standard.
Inhibition of rAC activity was calculated as a reduction of lauric acid in the samples compared to vehicle controls. Median inhibitory concentration (IC50) values were calculated by non-linear regression analysis of log [concentration]/inhibition curves using. GraphPad Prism 5 (GraphPad Software, Inc., CA, USA) applying a standard slope curve fitting.

Compound | inhibition at 0.3 µM
O=C(NCCCCc1ccccc1)n1ccc(=O)[nH]c1=O [Example 1, 2,4-dioxo-N-(4-phenylbutyl)pyrimidine-1-carboxamide] | 65%

Same assay, conditions: rat acid ceramidase, 100 μM N-lauroyl ceramide, pH 4.5

Compound | IC50
CCCCCCNC(=O)n1cc(Cl)c(=O)[nH]c1=O [Example 3, 5-Chloro-N-hexyl-2,4-dioxo-pyrimidine-1-carboxamide] | 67 nM
CCCCCCNC(=O)n1cc(CO)c(=O)[nH]c1=O [Example 7, N-hexyl-5-(hydroxymethyl)-2,4-dioxo-pyrimidine-1-carboxamide] | 420 nM
CCCCCCNC(=O)n1cc(I)c(=O)[nH]c1=O [Example 8, N-hexyl-5-iodo-2,4-dioxo-pyrimidine-1-carboxamide] | 147 nM
CCCCCCNC(=O)n1cc(OC)c(=O)[nH]c1=O [Example 9, N-hexyl-5-methoxy-2,4-dioxo-pyrimidine-1-carboxamide] | 1100 nM
CCCCCCNC(=O)n1cc(N(C)Cc2ccccc2)c(=O)[nH]c1=O [Example 10, 5-(benzyl(methyl)amino)-N-hexyl-2,4-dioxo-pyrimidine-1-carboxamide] | 5500 nM
CCCCCCNC(=O)n1cc(NC)c(=O)[nH]c1=O [Example 11, N-hexyl-5-methylamino-2,4-dioxo-pyrimidine-1-carboxamide] | 3400 nM
CCCCCCNC(=O)n1cc(N2CCOCC2)c(=O)[nH]c1=O [Example 12, N-hexyl-5-morpholino-2,4-dioxo-pyrimidine-1-carboxamide] | 880 nM
CCCCCCNC(=O)n1cc(N2CCN(C)CC2)c(=O)[nH]c1=O [Example 13, N-hexyl-5-(4-methylpiperazin-1-yl)-2,4-dioxo-pyrimidine-1-carboxamide] | 1400 nM
CCCCCCNC(=O)n1cc(C)c(=O)n(CC2CC2)c1=O [Example 16, 3-(cyclopropylmethyl)-N-hexyl-5-methyl-2,4-dioxo-pyrimidine-1-carboxamide] | 40 nM
CCCCCCCCNC(=O)n1cc(C(F)(F)F)c(=O)[nH]c1=O [Example 32, N-octyl-2,4-dioxo-5-(trifluoromethyl)pyrimidine-1-carboxamide] | 7 nM

From patent US9428465B2, “Acid ceramidase inhibitors and their use as medicaments” (FONDAZIONE ISTITUTO ITALIANO DI TECHNOLOGIA, priority 2012, dated 2016)
